The values below come from patent publication US6368788B1 (priority 1987, dated 2002).

One experiment deals with YAC-1 target cells. Description: NK cytotoxic activity of splenocytes on YAC-1 target cells. The note with it: for Cytotoxicity Change (%): vs saline. The class given is in vivo, C3H/HeJ mice.
For the next experiment, the system named is Rauscher MuLV. The experiment in a line: Anti-viral response to Rauscher MuLV. The class given is in vivo, mice. The note with it: days −2, −1, 0, +1, and +2; for Viremia: ± SEM. The source says:
Innate mechanisms of anti-viral immunity are important to survival of the host. The Rauscher murine leukemia virus (MuLV) is an example of a highly virulent animal retrovirus infection, first isolated and characterized by Dr. Rauscher from BALB/c mouse tissues in 1962. […] The virus employed in present GLP/blinded study was a murine leukemia complex known to induce progressive erythroleukemia in mice (i.e., Rauscher MuLV and replication-defective Rauscher spleen focus-forming virus). Disease manifested within about 6 days with death by about 50 days. Measurements of splenomegaly, blood reverse transcriptase, virus plaque assays (i.e., XC-plaque assay for viremia using SC-1 host cells) and serum anti-viral antibody titers were used to assess infection. Spleens achieved about 2.0 grams in weight within 21 days of infection, as compared with a normal spleen weights in an uninfected animals of about 0.1 gram.
Mice were inoculated with Rauscher MuLV complex (0.1 ml/7.8×10^4 PFU/mL) on day 0 and sacrificed on day 21. Test groups were comprised of 10 mice and control groups 6 mice. Control articles included saline and AZT (in drinking water at about 1.25 mg/mouse/day≈63 mg/kg/day/mouse). […] A non-infected group of mice was also sacrificed on day 21 to provide normal control values.
In EXAMPLE 38, SC-1 cells were originally derived from murine embryos, and XC cells (a rat tumor cell line induced by Rous Sarcoma Virus) were obtained from the ATCC in Rockville, Md.

The nature of experiment [1]: Survival in LPS-induced endotoxic shock. The class given is in vivo, CBA mice.
Protocol: The mortality results were evaluated using the Litchfield-Wilcoxon's probit analysis method and a computer program written to conduct probit analyses.
The subject of a further experiment is M. bovis. Type of experiment: in vivo, mice. The note with it: Group 8; INH 5 mg/kg sc daily.

Marks after values point to notes of the source that are not given here.

With Glu-Trp, the results for the “% Cytotoxicity (mean +/− S.D.)” value with YAC-1 target cells (dose 1 (μg/kg ip daily 7 days)), with YAC-1 target cells (dose 10 (μg/kg ip daily 7 days)) and with YAC-1 target cells (dose 1000 (μg/kg ip daily 7 days)) were 10.7 ± 14%, 14.3 ± 1.7% and 14.9 ± 2.9%, respectively. Further, the “Cytotoxicity Change (%)” value is given as 25 ↑ % in the experiment on YAC-1 target cells (dose 1), 67 ↑ % with YAC-1 target cells (dose 10) and 75* ↑ % in the experiment with YAC-1 target cells (dose 1000). In addition, the “Reduction Splenomegaly (%)” value is on record as −9% in the experiment on Rauscher MuLV (0.002 mg/kg); −3% in the experiment on Rauscher MuLV (0.005 mg/kg); 12% in the experiment with Rauscher MuLV (0.02 mg/kg); 30% in the experiment on Rauscher MuLV (0.05 mg/kg); 12% with Rauscher MuLV (0.17 mg/kg); −12% in the experiment on Rauscher MuLV (0.5 mg/kg). Besides, the “Reduction Splenomegaly (%)” value with Rauscher MuLV (1.75 mg/kg) was found to be 3%; with Rauscher MuLV (5 mg/kg), 6%. Further, the “Spleen Weight (mean ± SD)” value in the experiment with Rauscher MuLV (0.002 mg/kg) was 0.49 ± 0.31; in the experiment on Rauscher MuLV (0.005 mg/kg), 0.47 ± 0.29; in the experiment on Rauscher MuLV (0.02 mg/kg), 0.42 ± 0.32; in the experiment with Rauscher MuLV (0.05 mg/kg), 0.36 ± 0.11; in the experiment with Rauscher MuLV (0.17 mg/kg), 0.42 ± 0.26; with Rauscher MuLV (0.5 mg/kg), 0.48 ± 0.3. Besides, the “Spleen Weight (mean ± SD)” value was found to be 0.45 ± 0.39 in the experiment on Rauscher MuLV (1.75 mg/kg) and 0.44 ± 0.15 with Rauscher MuLV (5 mg/kg). In addition, the Viremia is reported as 3.25 ± 0.27 log10PFU/ml in the experiment on Rauscher MuLV (0.005 mg/kg), 2.99 ± 0.28 log10PFU/ml in the experiment with Rauscher MuLV (0.05 mg/kg), 3.31 ± 0.39 log10PFU/ml in the experiment on Rauscher MuLV (0.5 mg/kg) and 3.43 ± 0.368 log10PFU/ml in the experiment with Rauscher MuLV (5 mg/kg). Besides, the “Survivors (%)” value is given as 36% in experiment [1] (24 hrs after LD99 LPS ip, 10 μg/kg ip daily x3 prophylactic); 80* % in experiment [1] (24 hrs after LD99 LPS ip, 100 μg/kg ip daily x3 prophylactic); 9% in experiment [1] (30 hrs after LD99 LPS ip, 10 μg/kg ip daily x3 prophylactic); 40* % in experiment [1] (30 hrs after LD99 LPS ip, 100 μg/kg ip daily x3 prophylactic). Further, the Survivors is on record as 4 in experiment [1] (24 hrs after LD99 LPS ip, 10 μg/kg ip daily x3 prophylactic, 11 animals); 8 in experiment [1] (24 hrs after LD99 LPS ip, 100 μg/kg ip daily x3 prophylactic, 10 animals); 1 in experiment [1] (30 hrs after LD99 LPS ip, 10 μg/kg ip daily x3 prophylactic, 11 animals); 4 in experiment [1] (30 hrs after LD99 LPS ip, 100 μg/kg ip daily x3 prophylactic, 10 animals).
In the case of `NNC(=O)c1ccncc1` [Isoniazid, reference compound], the “Survival Mean” value in the experiment with M. bovis worked out at 57 ± 2.
